Laboratory results published in ChEMBL document CHEMBL1201862, “PubChem BioAssay data set” (2004).
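Five concentrations, 48 hours, 96-well plates. GI50 = concentration required for 50% inhibition of growth.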 Active and inactive are the calls of the source. No stated cut-off is given here; in the data, active = GI50 up to about 1.1 µM and inactive = higher. Residues, ends and D or L forms follow the SMILES beside them. *: point of attachment. Boc = CC(C)(C)OC(=O)*

Experiments:
Assay in all cases: growth of human tumour cells (NCI), 48 h
OVCAR-5 = tested on: OVCAR-5
HT-29 = tested on: HT-29
CCRF-CEM = tested on: CCRF-CEM
IGROV-1 = tested on: IGROV-1
HCT-15 = tested on: HCT-15
UO-31 = tested on: UO-31
SF-539 = tested on: SF-539
NCI-H522 = tested on: NCI-H522
SF-268 = tested on: SF-268
SF-295 = tested on: SF-295
UACC-62 = tested on: UACC-62
DU-145 = tested on: DU-145
786-0 = tested on: 786-0
UACC-257 = tested on: UACC-257
SK-MEL-2 = tested on: SK-MEL-2
M14 = tested on: M14
COLO 205 = tested on: COLO 205
SNB-75 = tested on: SNB-75
MDA-MB-231 = tested on: MDA-MB-231
MOLT-4 = tested on: MOLT-4
K562 = tested on: K562
NCI-H460 = tested on: NCI-H460
U-251 = tested on: U-251
Malme-3M = tested on: Malme-3M
OVCAR-8 = tested on: OVCAR-8
SK-OV-3 = tested on: SK-OV-3
HL-60 = tested on: HL-60
MDA-N = tested on: MDA-N
MDA-MB-435 = tested on: MDA-MB-435
T47D = tested on: T47D
SNB-19 = tested on: SNB-19
SN12C = tested on: SN12C
ACHN = tested on: ACHN
HCC 2998 = tested on: HCC 2998
MCF7 = tested on: MCF7
SK-MEL-28 = tested on: SK-MEL-28
LOX IMVI = tested on: LOX IMVI
NCI/ADR-RES = tested on: NCI/ADR-RES
HOP-92 = tested on: HOP-92
PC-3 = tested on: PC-3
RPMI-8226 = tested on: RPMI-8226
SR = tested on: SR
CAKI-1 = tested on: CAKI-1
HCT-116 = tested on: HCT-116
SW-620 = tested on: SW-620
NCI-H23 = tested on: NCI-H23
OVCAR-4 = tested on: OVCAR-4
TK-10 = tested on: TK-10
A498 = tested on: A498
HOP-62 = tested on: HOP-62
OVCAR-3 = tested on: OVCAR-3
EKVX = tested on: EKVX

CC(NC(=O)C(NC(=O)OC(C)(C)C)C(C)C)C(=O)N1CCCC1C(=O)NCC(=O)NC(C(=O)NCC(=O)O)C(C)C (stereo not drawn) (Boc-VAPGVG-OH; configuration not given here)
GI50 (OVCAR-5): > 100 µM (inactive) | GI50 (HT-29): > 100 µM (inactive) | GI50 (CCRF-CEM): > 100 µM (inactive) | GI50 (IGROV-1): > 100 µM (inactive) | GI50 (HCT-15): > 100 µM | GI50 (UO-31): > 100 µM (inactive) | GI50 (SF-539): > 100 µM (inactive) | GI50 (NCI-H522): > 100 µM (inactive) | GI50 (SF-268): > 100 µM (inactive) | GI50 (SF-295): > 100 µM (inactive) | GI50 (UACC-62): > 100 µM (inactive) | GI50 (DU-145): > 100 µM (inactive) | GI50 (786-0): > 100 µM (inactive) | GI50 (UACC-257): > 100 µM (inactive) | GI50 (SK-MEL-2): > 100 µM (inactive) | GI50 (M14): > 100 µM (inactive) | GI50 (COLO 205): > 100 µM (inactive) | GI50 (SNB-75): 29.2 µM (inactive) | GI50 (MDA-MB-231): 92.3 µM (inactive) | GI50 (MOLT-4): > 100 µM (inactive) | GI50 (K562): > 100 µM (inactive) | GI50 (NCI-H460): 65.5 µM (inactive) | GI50 (U-251): > 100 µM (inactive) | GI50 (Malme-3M): > 100 µM (inactive) | GI50 (OVCAR-8): > 100 µM (inactive) | GI50 (SK-OV-3): > 100 µM (inactive) | GI50 (HL-60): > 100 µM (inactive) | GI50 (MDA-N): > 100 µM (inactive) | GI50 (MDA-MB-435): > 100 µM (inactive) | GI50 (T47D): > 100 µM (inactive) | GI50 (SNB-19): > 100 µM (inactive) | GI50 (SN12C): > 100 µM (inactive) | GI50 (ACHN): > 100 µM (inactive) | GI50 (HCC 2998): 77.3 µM (inactive) | GI50 (MCF7): > 100 µM (inactive) | GI50 (SK-MEL-28): > 100 µM (inactive) | GI50 (LOX IMVI): > 100 µM (inactive) | GI50 (NCI/ADR-RES): > 100 µM (inactive) | GI50 (HOP-92): 29.2 µM (inactive) | GI50 (PC-3): > 100 µM (inactive) | GI50 (RPMI-8226): > 100 µM (inactive) | GI50 (SR): > 100 µM (inactive) | GI50 (CAKI-1): > 100 µM (inactive) | GI50 (HCT-116): > 100 µM (inactive) | GI50 (SW-620): > 100 µM (inactive) | GI50 (NCI-H23): > 100 µM (inactive) | GI50 (OVCAR-4): > 100 µM (inactive) | GI50 (TK-10): > 100 µM (inactive) | GI50 (A498): > 100 µM (inactive) | GI50 (HOP-62): > 100 µM (inactive) | GI50 (OVCAR-3): > 100 µM (inactive) | GI50 (EKVX): > 100 µM (inactive)

O=P(O)(O)OC1C(OP(=O)(O)O)C(OP(=O)(O)O)C(OP(=O)(O)O)C(OP(=O)(O)O)C1OP(=O)(O)O (stereo not drawn) [PHYTATE]
GI50 (EKVX): > 500 µM (inactive)
